Data taken from US20100267774A1, “P38 MAP KINASE INHIBITORS” (CHROMA THERAPEUTICS LTD., priority 2007, published 2010).

target: T1, p38 MAP Kinase a (Homo sapiens, UniProt Q16539); experiment: p38 MAP Kinase activity, radiometric filter-binding assay (Upstate); assay type: biochemical; conditions: IC50 range; read-out: Inhibitor activity versus p38 MAPKa
T1 construct: purchased Upstate (Dundee UK)
Protocol: The ability of compounds to inhibit p38 MAP a Kinase activity was measured in an assay performed by Upstate (Dundee UK). In a final reaction volume of 25 μL, p38 MAP Kinase a (5-10 mU) is incubated with 25 mM Tris pH 7.5, 0.002 mMEGTA, 0.33 mg/mL myelin basic protein, 10 mM MgAcetate and [g-33P-ATP] (specific activity approx. 500 cpm/pmol, concentration as required). The reaction is initiated by the addition of the MgATP mix. After incubation for 40 minutes at room temperature, the reaction is stopped by the addition of 5 μL of a 3% phosphoric acid solution. 10 μL of the reaction is then spotted onto a P30 filtermat and washed three times for 5 minutes in 75 mM phosphoric acid and once in methanol prior to drying and scintillation counting.
Duplicate data points are generated from a 1/3 log dilution series of a stock solution in DMSO. Nine dilutions steps are made from a top concentration of 10 μM, and a ‘no compound’ blank is included. The standard radiometric filter-binding assay is performed at an ATP concentration at, or close to, the Km. Data from scintillation counts are collected and subjected to free-fit analysis by Prism software. From the curve generated, the concentration giving 50% inhibition is determined and reported.

T1 sequence (Q16539 whole entry): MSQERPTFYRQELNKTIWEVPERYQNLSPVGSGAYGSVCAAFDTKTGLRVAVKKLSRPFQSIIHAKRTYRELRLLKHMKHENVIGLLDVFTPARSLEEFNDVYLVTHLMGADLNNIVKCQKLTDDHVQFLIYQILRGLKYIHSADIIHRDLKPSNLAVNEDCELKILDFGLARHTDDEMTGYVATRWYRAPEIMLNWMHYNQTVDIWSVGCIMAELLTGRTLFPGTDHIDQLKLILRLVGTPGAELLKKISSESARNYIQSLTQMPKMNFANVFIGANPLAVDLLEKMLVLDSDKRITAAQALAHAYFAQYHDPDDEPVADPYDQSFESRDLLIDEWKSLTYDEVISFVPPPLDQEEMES

Row | SMILES | IC50 [nM]
1 | CC(C)(C)OC(=O)[C@@H](NCCc1ccc(-n2c(N)c(C(=O)c3ccc(F)cc3F)ccc2=O)cc1)c1ccccc1 [Example 2, tert-butyl (2S)-{[2-(4-{6-amino-5-[(2,4-difluorophenyl)carbonyl]-2-oxopyridin-1(2H)-yl}phenyl)ethyl]amino}(phenyl)ethanoate] | 100 to 1000
2 | Nc1c(C(=O)c2ccc(F)cc2F)ccc(=O)n1-c1ccc(CCN[C@H](C(=O)OC2CCCC2)C2CCCCC2)cc1 [Example 3, Cyclopentyl (2S)-{[2-(4-{6-amino-5-[(2,4-difluorophenyl)carbonyl]-2-oxopyridin-1(2H)-yl}phenyl)ethyl]amino}(cyclohexyl)ethanoate] | 100 to 1000
3 | CC(C)(C)OC(=O)[C@@H](NCCc1ccc(-n2c(N)c(C(=O)c3ccc(F)cc3F)ccc2=O)cc1)C1CCCCC1 [Example 4, tert-butyl (2S)-{[2-(4-{6-amino-5-[(2,4-difluorophenyl)carbonyl]-2-oxopyridin-1(2H)-yl}phenyl)ethyl]amino}(cyclohexyl)ethanoate] | > 1000
4 | CC(C)C[C@@H](NCCc1ccc(-n2c(N)c(C(=O)c3ccc(F)cc3F)ccc2=O)cc1)C(=O)OC(C)(C)C [Example 10, tert-butyl N-[2-(4-{6-amino-5-[(2,4-difluorophenyl)carbonyl]-2-oxopyridin-1(2H)-yl}phenyl)ethyl]-D-leucinate] | 100 to 1000
5 | CC(C)C[C@H](NCCc1ccc(-n2c(N)c(C(=O)c3ccc(F)cc3F)ccc2=O)cc1)C(=O)O[C@H]1C[C@@H](C)CC[C@@H]1C(C)C [Example 14, (1S,2R,5S)-2-Isopropyl-5-methylcyclohexyl N-(2-{4-[6-amino-5-(2,4-difluorobenzoyl)-2-oxopyridin-1(2H)-yl]phenyl}ethyl)-L-leucinate] | > 1000
6 | C[C@@H](OC(C)(C)C)[C@H](NCCc1ccc(-n2c(N)c(C(=O)c3ccc(F)cc3F)ccc2=O)cc1)C(=O)OC(C)(C)C [Example 16, tert-butyl N-[2-(4-{6-amino-5-[(2,4-difluorophenyl)carbonyl]-2-oxopyridin-1(2H)-yl}phenyl)ethyl]-O-tert-butyl-L-threoninate] | 100 to 1000
7 | CC[C@H](C)[C@H](NCCc1ccc(-n2c(N)c(C(=O)c3ccc(F)cc3F)ccc2=O)cc1)C(=O)OC(C)(C)C [Example 19, tert-butyl N-[2-(4-{6-amino-5-[(2,4-difluorophenyl)carbonyl]-2-oxopyridin-1(2H)-yl}phenyl)ethyl]-L-isoleucinate] | 100 to 1000
8 | C[C@H](NCCc1ccc(-n2c(N)c(C(=O)c3ccc(F)cc3F)ccc2=O)cc1)C(=O)OC(C)(C)C [Example 21, tert-butyl N-[2-(4-{6-amino-5-[(2,4-difluorophenyl)carbonyl]-2-oxopyridin-1(2H)-yl}phenyl)ethyl]-L-alaninate] | < 100
9 | CC(C)(C)OC(=O)[C@H](Cc1ccccc1)NCCc1ccc(-n2c(N)c(C(=O)c3ccc(F)cc3F)ccc2=O)cc1 [Example 23, tert-butyl N-[2-(4-{6-amino-5-[(2,4-difluorophenyl)carbonyl]-2-oxopyridin-1(2H)-yl}phenyl)ethyl]-L-phenylalaninate] | 100 to 1000
10 | CC(C)(C)OC[C@H](NCCc1cc(F)c(-n2c(N)c(C(=O)c3ccc(F)cc3)ccc2=O)c(F)c1)C(=O)OC(C)(C)C [Example 32, tert-butyl N-(2-{4-[6-amino-5-(4-fluorobenzoyl)-2-oxopyridin-1(2H)-yl]-3,5-difluorophenyl}ethyl)-O-tert-butyl-L-serinate] | 100 to 1000
11 | CC(C)C[C@H](NCCc1ccc(-n2c(N)c(C(=O)c3ccc(F)cc3F)ccc2=O)s1)C(=O)OC(C)(C)C [Example 50, tbutyl N-(2-{5-[6-amino-5-(2,4-difluorobenzoyl)-2-oxopyridin-1(2H)-yl]-2-thienyl}ethyl)-L-leucinate] | 100 to 1000
12 | Nc1c(C(=O)c2ccc(F)cc2F)ccc(=O)n1-c1ccc(CCN[C@H](C(=O)O)c2ccccc2)cc1 [Example 51, (2S)-[(2-{4-[6-amino-5-(2,4-difluorobenzoyl)-2-oxopyridin-1(2H)yl]-phenyl}ethyl)amino](phenyl)acetic acid] | 100 to 1000
13 | Nc1c(C(=O)c2ccc(F)cc2F)ccc(=O)n1-c1ccc(CCN[C@H](C(=O)O)C2CCCCC2)cc1 [Example 52, (2S)-{[2-(4-{6-amino-5-[(2,4-difluorophenyl)carbonyl]-2-oxopyridin-1(2H)-yl}phenyl)ethyl]amino}(cyclohexyl)ethanoic acid] | 100 to 1000
14 | CC(C)[C@H](NCCc1ccc(-n2c(N)c(C(=O)c3ccc(F)cc3F)ccc2=O)cc1)C(=O)O [Example 53, N-[2-(4-{6-amino-5-[(2,4-difluorophenyl)carbonyl]-2-oxopyridin-1(2H)-yl}phenyl)ethyl]-L-valine] | < 100
15 | CC(C)(C)[C@H](NCCc1ccc(-n2c(N)c(C(=O)c3ccc(F)cc3F)ccc2=O)cc1)C(=O)O [Example 54, N-[2-(4-{6-amino-5-[(2,4-difluorophenyl)carbonyl]-2-oxopyridin-1(2H)-yl}phenyl)ethyl]-3-methyl-L-valine] | 100 to 1000
16 | CC(C)C[C@@H](NCCc1ccc(-n2c(N)c(C(=O)c3ccc(F)cc3F)ccc2=O)cc1)C(=O)O [Example 55, N-[2-(4-{6-amino-5-[(2,4-difluorophenyl)carbonyl]-2-oxopyridin-1(2H)-yl}phenyl)ethyl]-D-leucine] | 100 to 1000
17 | CC(C)(C)OC[C@H](NCCc1ccc(-n2c(N)c(C(=O)c3ccc(F)cc3F)ccc2=O)cc1)C(=O)O [Example 56, N-[2-(4-{6-amino-5-[(2,4-difluorophenyl)carbonyl]-2-oxopyridin-1(2H)-yl}phenyl)ethyl]-O-tert-butyl-L-serine] | < 100
18 | Nc1c(C(=O)c2ccc(F)cc2F)ccc(=O)n1-c1ccc(CCN[C@@H](CO)C(=O)O)cc1 [Example 57, N-[2-(4-{6-amino-5-[(2,4-difluorophenyl)carbonyl]-2-oxopyridin-1(2H)-yl}phenyl)ethyl]-L-serine] | < 100
19 | C[C@@H](O)[C@H](NCCc1ccc(-n2c(N)c(C(=O)c3ccc(F)cc3F)ccc2=O)cc1)C(=O)O [Example 58, N-[2-(4-{6-amino-5-[(2,4-difluorophenyl)carbonyl]-2-oxopyridin-1(2H)-yl}phenyl)ethyl]-L-threonine] | < 100
20 | C[C@H](NCCc1ccc(-n2c(N)c(C(=O)c3ccc(F)cc3F)ccc2=O)cc1)C(=O)O [Example 60, N-[2-(4-{6-amino-5-[(2,4-difluorophenyl)carbonyl]-2-oxopyridin-1(2H)-yl}phenyl)ethyl]-L-alanine] | < 100
21 | Nc1c(C(=O)c2ccc(F)cc2F)ccc(=O)n1-c1ccc(CCN[C@@H](Cc2ccccc2)C(=O)O)cc1 [Example 61, N-[2-(4-{6-amino-5-[(2,4-difluorophenyl)carbonyl]-2-oxopyridin-1(2H)-yl}phenyl)ethyl]-L-phenylalanine] | < 100
22 | Nc1c(C(=O)c2ccc(F)cc2)ccc(=O)n1-c1c(F)cc(CCN[C@H](C(=O)O)c2ccccc2)cc1F [Example 62, (2S)-[(2-{4-[6-amino-5-(4-fluorobenzoyl)-2-oxopyridin-1(2H)-yl]-3,5-difluorophenyl}ethyl)amino](phenyl)acetic acid] | < 100
23 | CC(C)C[C@H](NCCc1cc(F)c(-n2c(N)c(C(=O)c3ccc(F)cc3)ccc2=O)c(F)c1)C(=O)O [Example 63, N-(2-{4-[6-amino-5-(4-fluorobenzoyl)-2-oxopyridin-1(2H)-yl]-3,5-difluorophenyl}ethyl)-L-leucine] | < 100
24 | CC(C)C[C@@H](NCCc1cc(F)c(-n2c(N)c(C(=O)c3ccc(F)cc3)ccc2=O)c(F)c1)C(=O)O [Example 64, N-(2-{4-[6-amino-5-(4-fluorobenzoyl)-2-oxopyridin-1(2H)-yl]-3,5-difluorophenyl}ethyl)-D-leucine] | < 100
25 | CC(C)(C)OC[C@H](NCCc1cc(F)c(-n2c(N)c(C(=O)c3ccc(F)cc3)ccc2=O)c(F)c1)C(=O)O [Example 65, N-(2-{4-[6-amino-5-(4-fluorobenzoyl)-2-oxopyridin-1(2H)-yl]-3,5-difluorophenyl}ethyl)-O-tert-butyl-L-serine] | < 100
26 | Nc1c(C(=O)c2ccc(F)cc2F)ccc(=O)n1-c1c(F)cc(CCN[C@H](C(=O)O)c2ccccc2)cc1F [Example 66, (2S)-[(2-{4-[6-amino-5-(2,4-difluorobenzoyl)-2-oxopyridin-1(2H)-yl]-3,5-difluorophenyl}ethyl)amino](phenyl)acetic acid] | < 100
27 | CC(C)C[C@H](NCCc1cc(F)c(-n2c(N)c(C(=O)c3ccc(F)cc3F)ccc2=O)c(F)c1)C(=O)O [Example 67, N-(2-{4-[6-amino-5-(2,4-difluorobenzoyl)-2-oxopyridin-1(2H)-yl]-3,5-difluorophenyl}ethyl)-L-leucine] | < 100
28 | CC(C)C[C@@H](NCCc1cc(F)c(-n2c(N)c(C(=O)c3ccc(F)cc3F)ccc2=O)c(F)c1)C(=O)O [Example 68, N-(2-{4-[6-amino-5-(2,4-difluorobenzoyl)-2-oxopyridin-1(2H)-yl]-3,5-difluorophenyl}ethyl)-D-leucine] | < 100
29 | CC(C)(C)OC[C@H](NCCc1cc(F)c(-n2c(N)c(C(=O)c3ccc(F)cc3F)ccc2=O)c(F)c1)C(=O)O [Example 69, N-(2-{4-[6-amino-5-(2,4-difluorobenzoyl)-2-oxopyridin-1(2H)-yl]-3,5-difluorophenyl}ethyl)-O-tert-butyl-L-serine] | < 100
